Experimental data as given in patent publication US20200147069A1, “Compounds for The Reduction of The Deleterious Activity of Extended Nucleotide Repeat Containing Genes” (The Board of Trustees of the Leland Stanford Junior …, priority 2017, published 2020).

Legend:
[1] = target: T1, interaction between Supt4h and NGN (Homo sapiens, UniProt O00267+P63272); test: Split Gaussia luciferase complementation assay (M2-8 cells); assay type: cell-based; conditions: for IC50: M2-8 cells, 24 hr, concentration at which signal was reduced to 50% of untreated
T1 construct: expressed in transfected cells
Procedure: i: pNBR-X1-Supt4-Gluc1 and pNEBR-X1-NGN-Gluc2 The HA-Supt4h and Flag-NGN fragments are amplified by PCR using the plasmid pHA-Supt4h-YC and pFlag-NGN-YN and sub-cloned individually into pcDNA3.1-Gluc1 and pcDNA3.1-Gluc2 (described in “A highly sensitive protein-protein interaction assay based on Gausssia luciferase” published at Nat Methods. 2006 December; 3(12):977-9. Epub 2006 Nov. 12). Then HA-Supt4h-Gluc1 and Flag-NGN-Gluc2 are amplified by PCR and inserted to pNEBR-X1-Hygro (New England BioLabs), which contain RheoSwitch responsive element under the control of RheoSwitch ligand.
PCR products containing the sequence from 5XRE to polyA in pNEBR-X1-NGN-G2 are inserted to pNEBR-X1-Supt4h-G1 at PciI site to generate Supt4h-G1 and NGN-G2 bidirectional under their own RheoSwitch responsive element and polyA in the same plasmid.
i: 293-R^1 is a cloned cell which is engineered to constitutively express RSL1 receptor/activator by transfecting HEK 293 cells with pNEBR-R^1 plasmid (New England BioLabs) and selected with Blasticidin.
ii: M2-8 is a cloned 293-R^1 cell which can inducibly express pNEBR-X1-Supt4h-G1-NGN-G2 by addition of RSL1. Two point mutations (M431 and M1101) are introduced to the GL1 and GL2 for better stability according to “A high-throughput cell-based Gaussia luciferase reporter assay for identifying modulators of fibulin-3 secretion” published on J Biomol Screen. 2013 July; 18(6):647-58. The cell line is selected by Hygromycin.
All the HEK-293 cells and derivative cell clones are maintained in DMEM containing 10% FBS plus corresponding antibiotics (250 μg/ml hygromycin B, 10 μg/ml blasticidin or both) at 37° C., 5% CO2. All the transfections are done by using lifpofectamine 2000 (Invitrogen) according to the manufacture's direction.
Plasmids harboring the Gluc1 and Gluc2 are co-transfected in a 1:1 ratio into 293-R^1 cells plated on tissue culture treated 24-well plates using Lipofectamine 2000 according to the manufacturer's instruction. For stable cell M2-8, the cells are plated into 96 well or 384 well white plate directly. 24 hours later, RheoSwitch ligand together with/without test compound is added to the cells for induction/drug treatment. After 24 hr, the cells are washed with PBS and the plate was put in −20° C. freezer for overnight. After taking out the plate from freezer, lysis buffer (30 mM Tris-HCl, pH 8.0, 5 mM NaCl, 0.1% Triton X-100) with 10 μg/ml native coelenterazine (Nanolight Technology) is immediately added to the cells. The cells are lysed at room temperature for one hour in dark. After shaking for about 1 min, 40 μl of cell lysate are transferred to a white 96 well plate. For M2-8 in white micro plate, no transfer is needed. Signal intensities (integrated 100 ms) were read on Tecan Infinite M200 or M1000.
The bioluminescence signal of Gaussia Luciferase from untreated M2-8 cells was set as 100% and the IC50 of the compound was defined as the compound concentration at which the signal intensity was reduced to 50%.
The split Gaussia luciferase complementation assay measures the interaction between Sup4h and NGN. NGN is the subunit of Supt5h that binds to Supt4h. […] Therefore, administration of Compound 1 results in decreased production of mutant proteins encoded by genes that include mutant nucleotide repeats.

mutant HTT protein = test: Mutant HTT activity assay in induced pluripotent stem cells (iPSC); assay type: cell-based, human; conditions: iPSCs derived from a Huntington's disease patient, 24 hr, Western blot normalized by tubulin
Procedure: FIG. 1A-1B. iPSCs were treated with Compound 1 at different doses for 24 hr. The cells were collected and lysed for protein quantification. Equal amounts of protein were applied on SDS-PAGE gel for Western Blotting. Mutant HTT protein was recognized by polyQ antibody (MAB1574 from Millipore) while wild type HTT protein was blotted by anti-Huntingtin antibody (MAB2166 from Millipore) (FIG. 1A). Both proteins were scanned and quantified by Li-Cor Odyssey and normalized by tubulin (FIG. 1B).
Huntington disease patient iPSCs (ND36999 from Coriell Institute) were detached into single cells by Accutase (AT104 from Accutase) and plated on a 24-well plate coated with Matrigel (354277 from Corning). […] The protein concentrations were determined by BCA assay (Pierce, ThermoFisher). […] The protein level of mutant HTT, total HTT and tubulin were determined by immunoblotting with anti-poly Glutamine (MAB1574 from Millipore), anti-Huntingtin protein (MAB2166 from Millipore) and anti-alpha tubulin (AJ1034a from ABGENT). […] The band intensities were determined by Li-Cor Odyssey software.
Using the protocol reported above, iPSCs were treated with Compound 1 at various doses for 24 hr. The cells were collected and lysed for protein quantification. […] Both proteins were scanned and quantified by Li-Cor Odyssey and normalized by tubulin.

Gmr-Htt97Q/+ HD flies = test: Eye morphology (rough eye) analysis in Drosophila HD model; assay type: in vivo, Drosophila melanogaster; conditions: 100 μM in media
Procedure: FIG. 2A. The morphology of compound eye was analyzed in fruit flies treated with or without Compound 1. […] To quantify the appearance of “rough eye” in Gmr-Htt97Q/+ treated with 10 and 100 μM of Compound 1, ten flies were randomly picked from each group and the number of flies with “rough eye” phenotype were determined under microscope. Compared to untreated group, the relative percentage of HD flies with “rough eye” phenotype in treated groups is shown (right panel). Data are presented as mean±SD (N=3; **, p<0.01 by student's t test).
(§1) The Drosophila melanogaster (fruit fly) HD models used in this set of experiments carry the coding sequence of human Htt exon1 with 97 CAG repeats to mimic mutant Httof Huntington's disease (HD). The Gmr::Htt97Q fly, expressing mutant Htt primarily in the neurons of Drosophila compound eyes, has a severe degeneration of photoreceptor neurons and the phenotypic trait ‘rough eye’. The elav::Htt97Q fly expresses the mutant protein specifically in neuroblasts and glial cells in the Drosophila embryonic CNS, resulting in a substantially negative impact on eclosion. All of the fly stocks and genetics crosses were maintained at 25° C. on standard cornmeal yeast agar media. […]

elav::Htt97Q HD flies = test: Eclosion rate analysis in Drosophila HD model; assay type: in vivo, Drosophila melanogaster
Procedure: FIG. 2B. HD fly (elav::Htt97Q) eclosion rate was measured in the presence or absence of Compound 1 treatment. 100 newly hatched flies, generated from crossing of male (elav-gal4/cyo) and female (UAS-Htt97Q/UAS-Htt97Q) flies, were collected at […]. The eclosion rate was determined by the number of HD-flies (elav::Htt97Q) vs. the number of non HD-flies (cyo::Htt97Q) (N=3; *, p<0.05 by student's t test).
as §1, with “eclosion.” for “eclosion. All of the fly stocks and genetics crosses were maintained at 25° C. on standard cornmeal yeast agar media.”
A group of 15 male flies (elav-gal4/cyo) and 15 virgin-female (UAS-Htt97Q/UAS-Htt97Q) flies were cultured in a vial that contains standard yeast agar media without or with Compound 1. […] The eclosion rate is determined by the number of HD-flies vs. the number of non HD-flies in a total of 100 collected flies in each experimental condition. […]

HD flies = test: Fly viability; assay type: in vivo, Drosophila melanogaster; conditions: dose that alleviated phenotypic defects

IC50 [1] [nM]	SMILES	further results
< 1000	Cc1ccc2[nH]c3c(c2c1)CCCC3NCc1ccccc1 (stereo not drawn)	–
–	Brc1ccc2[nH]c3c(c2c1)CCCC3NCc1ccccc1 (stereo not drawn) [Compound 1]	interaction between Sup4h and NGN ([1]; split Gaussia assay): interrupts the interaction between Sup4h and NGN; mutant HTT protein level (mutant HTT protein): decreases mutant HTT protein; incidence of rough eye phenotype (Gmr-Htt97Q/+ HD flies): 70% of the untreated group; eclosion rate (elav::Htt97Q HD flies): relatively low eclosion rate was reversed; fly viability (HD flies): did not affect fly viability
> 1000	CCN1CCC(NC2CCCc3c2[nH]c2ccccc32)CC1 (stereo not drawn)	–
< 1000	CC(C)NC1CCCc2c1[nH]c1ccc(Br)cc21 (stereo not drawn)	–
< 1000	Cc1ccc2[nH]c3c(c2c1)CCCC3NCc1ccc(F)cc1 (stereo not drawn)	–
> 1000	CC(C)NC1CCCc2c1[nH]c1ccc(OC(C)C)cc21 (stereo not drawn)	–
< 1000	O=C(NC1CCCc2c1[nH]c1ccc(Cl)cc21)c1ccccn1 (stereo not drawn)	–
> 1000	CC(C)Oc1ccc2[nH]c3c(c2c1)CCCC3NC1CCCC1 (stereo not drawn)	–
> 1000	CC(C)Oc1ccc2[nH]c3c(c2c1)CCCC3NCCc1ccccc1 (stereo not drawn)	–
< 1000	Brc1ccc2[nH]c3c(c2c1)CCCC3NC1CCCC1 (stereo not drawn)	–

SMILES	IC50 [1] [nM]	further results
Brc1ccc2[nH]c3c(c2c1)CCCC3NCc1ccccc1 (stereo not drawn) [drawing 40]	< 1000	–
